In PubChem BioAssay AID743115 (Vanderbilt Specialized Chemistry Center, 2013):
Calls of active or inactive are those of the source.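 How the source made its calls: active means response above 60% of the acetylcholine maximum at the M5 muscarinic receptor, read as positive allosteric modulation; inactive means the rest.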

target: Muscarinic acetylcholine receptor M3 (Homo sapiens) (UniProt P20309); experiment: human M3 receptor positive allosteric modulators, dose response, selectivity assay for M5 PAM project, cell-based, CHO-K1 hM3, calcium flux, ACh EC20 (AID 743115); details: CHO-K1 hM3, calcium flux Fluo-4, ACh EC20 potentiation
Sequence (P20309 whole entry, looked up): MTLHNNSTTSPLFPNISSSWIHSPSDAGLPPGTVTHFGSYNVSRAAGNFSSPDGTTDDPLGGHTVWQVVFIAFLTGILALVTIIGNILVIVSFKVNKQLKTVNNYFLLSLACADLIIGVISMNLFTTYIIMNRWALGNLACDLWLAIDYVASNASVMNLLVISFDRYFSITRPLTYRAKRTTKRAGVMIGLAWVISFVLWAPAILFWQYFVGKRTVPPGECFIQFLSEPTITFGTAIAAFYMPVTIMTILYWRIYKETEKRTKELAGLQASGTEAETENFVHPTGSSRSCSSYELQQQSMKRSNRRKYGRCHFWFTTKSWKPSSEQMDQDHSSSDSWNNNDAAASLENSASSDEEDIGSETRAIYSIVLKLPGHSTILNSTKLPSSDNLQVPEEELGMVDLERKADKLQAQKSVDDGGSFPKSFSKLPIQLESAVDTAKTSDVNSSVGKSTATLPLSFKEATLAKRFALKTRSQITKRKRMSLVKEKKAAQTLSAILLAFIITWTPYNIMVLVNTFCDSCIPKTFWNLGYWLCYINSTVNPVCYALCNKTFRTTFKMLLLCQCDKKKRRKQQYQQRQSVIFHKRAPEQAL

EC50, active:
CCN(Cc1ccccc1C(F)(F)F)C(=O)C1CCN(S(=O)(=O)c2ccc3[nH]ncc3c2)CC1 2.08 µM
CCN(Cc1ccccc1Cl)C(=O)C1CCN(S(=O)(=O)c2ccc3cn[nH]c3c2)CC1 2.89 µM
CCN(Cc1ccccc1C(F)(F)F)C(=O)C1(F)CCN(S(=O)(=O)c2ccc3[nH]ncc3c2)CC1 1.77 µM
CCN(C(=O)C1CCN(S(=O)(=O)c2ccc3[nH]ncc3c2)CC1)[C@H](C)c1ccccc1 2.17 µM
CCN(Cc1ccccc1C(F)(F)F)C(=O)C1CCN(S(=O)(=O)c2ccc3cn[nH]c3c2)CC1 4.67 µM
CCN(Cc1ccccc1Cl)C(=O)C1CCN(S(=O)(=O)c2ccc3[nH]ncc3c2)CC1 0.52 µM

same assay, conditions: CHO-K1 hM3, calcium flux Fluo-4, ACh EC20 potentiation; at 30 µM (top of the series)

% ACh max response, inactive:
CCN(Cc1ccccc1)C(=O)C1CCN(S(=O)(=O)c2ccc(OC)cc2)CC1
CCN(C(=O)C1CCN(S(=O)(=O)c2ccc(OC)cc2)CC1)[C@H](C)c1ccccc1
CCN(Cc1ccccc1)C(=O)C1CCN(S(=O)(=O)c2ccc3c(c2)OCCO3)CC1
